The term IC50 denotes the point on the concentration scale where inhibition reaches its midpoint. The low end stands for higher potency, the high end for lower potency.

We go through 24 compounds from US9737542B2, “Pyrrolotriazine kinase inhibitors” (BRISTOL-MYERS SQUIBB COMPANY, priority 2013, dated 2017).

The target in the assay is GST-Xa-hAAK1 (Homo sapiens (Human), UniProt Q2M2I8). The assay can be described thus: AAK1 Kinase Assay. As to conditions: ATP 22 μM, 3 hours at room temperature. The class given is biochemical.
Chain of GST-Xa-hAAK1 (Q2M2I8 whole entry): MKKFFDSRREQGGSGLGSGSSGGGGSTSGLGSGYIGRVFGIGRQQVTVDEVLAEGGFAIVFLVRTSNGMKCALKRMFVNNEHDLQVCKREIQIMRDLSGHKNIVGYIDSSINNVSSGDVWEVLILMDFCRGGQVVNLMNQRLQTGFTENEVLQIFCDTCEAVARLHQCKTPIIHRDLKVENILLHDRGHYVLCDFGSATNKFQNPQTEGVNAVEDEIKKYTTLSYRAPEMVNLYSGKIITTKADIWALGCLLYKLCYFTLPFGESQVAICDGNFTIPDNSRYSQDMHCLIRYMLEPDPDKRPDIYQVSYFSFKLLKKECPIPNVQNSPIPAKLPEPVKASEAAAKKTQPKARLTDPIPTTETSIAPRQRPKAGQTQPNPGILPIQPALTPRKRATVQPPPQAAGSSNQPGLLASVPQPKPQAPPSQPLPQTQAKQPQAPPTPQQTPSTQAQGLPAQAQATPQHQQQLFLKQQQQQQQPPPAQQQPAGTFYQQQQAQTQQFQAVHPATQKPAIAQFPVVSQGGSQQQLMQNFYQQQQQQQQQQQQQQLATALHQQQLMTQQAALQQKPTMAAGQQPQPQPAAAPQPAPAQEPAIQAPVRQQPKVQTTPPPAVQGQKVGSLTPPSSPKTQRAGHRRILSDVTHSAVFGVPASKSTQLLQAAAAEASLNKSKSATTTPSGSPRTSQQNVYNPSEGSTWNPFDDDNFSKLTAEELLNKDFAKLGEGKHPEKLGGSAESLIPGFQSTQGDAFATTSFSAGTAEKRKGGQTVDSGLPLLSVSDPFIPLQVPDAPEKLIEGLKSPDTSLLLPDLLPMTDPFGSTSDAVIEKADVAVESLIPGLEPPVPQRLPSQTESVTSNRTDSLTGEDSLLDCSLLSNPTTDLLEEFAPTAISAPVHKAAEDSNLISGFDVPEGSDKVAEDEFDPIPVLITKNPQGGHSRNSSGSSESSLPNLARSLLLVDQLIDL

Method: The assays were performed in U-bottom 384-well plates. […] The reactions were initiated by the combination of bacterially expressed, GST-Xa-hAAK1 with substrates and test compounds. The reactions were incubated at room temperature for 3 hours and terminated by adding 60 μl of 35 mM EDTA buffer to each sample. The reactions were analyzed on the Caliper LabChip 3000 (Caliper, Hopkinton, Mass.) by electrophoretic separation of the fluorescent substrate and phosphorylated product. Inhibition data were calculated by comparison to EDTA quenched control reactions for 100% inhibition and vehicle-only reactions for 0% inhibition. […] Dose response curves were generated to determine the concentration required inhibiting 50% of kinase activity (IC50). Compounds were dissolved at 10 mM in dimethylsulfoxide (DMSO) and evaluated at eleven concentrations. IC50 values were derived by non-linear regression analysis.

Compound `CC(C)n1nnc(-c2cccc(Nc3ncnn4ccc(C(=O)N5CCC(N)CC5)c34)c2)n1` [Example 109, (4-aminopiperidin-1-yl)(4-((3-(2-isopropyl-2H-tetrazol-5-yl)phenyl)amino)pyrrolo[2,1-f][1,2,4]triazin-5-yl)methanone] displayed an IC50 of 4.77 µM. The compound `NC1CCN(Cc2ccn3ncnc(Nc4cccc(-c5cnco5)c4)c23)CC1` [Example 1, 5-((4-aminopiperidin-1-yl)methyl)-N-(3-(oxazol-5-yl)phenyl)pyrrolo[2,1-f][1,2,4]triazin-4-amine] showed an IC50 (listed as IC50 ranges) of 0.1 to 1 µM.

`CC(C)n1nnc(-c2cc(CO)cc(Nc3ncnn4cccc34)c2)n1` [Example 83, (3-(2-isopropyl-2H-tetrazol-5-yl)-5-(pyrrolo[2,1-f][1,2,4]triazin-4-ylamino)phenyl)methanol] came in with an IC50 of 0.406 µM. On the same count and under the same terms, the result for `CC(C)n1nnc(-c2cccc(Nc3ncnn4ccc(C(=O)NCC5CC5)c34)c2)n1` [Example 105, N-(cyclopropylmethyl)-4-((3-(2-isopropyl-2H-tetrazol-5-yl)phenyl)amino)pyrrolo[2,1-f][1,2,4]triazine-5-carboxamide] reads 0.785 µM. Take `Cc1nnc(-c2cccc(Nc3ncnn4ccc(CN5CC6CNCC6C5)c34)c2)s1` (stereo not drawn) [Example 20, 5-((hexahydropyrrolo[3,4-c]pyrrol-2(1H)-yl)methyl)-N-(3-(5-methyl-1,3,4-thiadiazol-2-yl)phenyl)pyrrolo[2,1-f][1,2,4]triazin-4-amine]: where the note is “listed as IC50 ranges”, the IC50 was 1 to 5 µM. On to `CC(C)n1nnc(-c2cccc(Nc3ncnn4ccc(CN)c34)c2)n1` [Example 99, 5-(aminomethyl)-N-(3-(2-isopropyl-2H-tetrazol-5-yl)phenyl)pyrrolo[2,1-f][1,2,4]triazin-4-amine], for which the IC50 came out at 0.217 µM. Regarding `CC(C)n1nnc(-c2cccc(Nc3ncnn4ccc(CN5CCC(C#N)CC5)c34)c2)n1` [Example 65, 1-((4-((3-(2-isopropyl-2H-tetrazol-5-yl)phenyl)amino)pyrrolo[2,1-f][1,2,4]triazin-5-yl)methyl)piperidine-4-carbonitrile], the IC50 stood at 0.072 µM. As for `NC1CCN(Cc2ccn3ncnc(Nc4cc(O)cc(-c5ncco5)c4)c23)CC1` [Example 7, 3-((5-((4-aminopiperidin-1-yl)methyl)pyrrolo[2,1-f][1,2,4]triazin-4-yl)amino)-5-(oxazol-2-yl)phenol], where the note is “listed as IC50 ranges”, the IC50 lay within 0.1 to 1 µM. The compound `Cc1ccn2ncnc(Nc3cccc(-c4noc(C(C)(C)CO)n4)c3)c12` [Example 89, 2-methyl-2-(3-(3-(5-methylpyrrolo[1,2-f][1,2,4]triazin-4-ylamino)phenyl)-1,2,4-oxadiazol-5-yl)propan-1-ol] returned an IC50 of 0.207 µM. Consider `CC(C)c1nnc(-c2cccc(Nc3ncnn4ccc(CN5CCNCC5)c34)c2)s1` [Example 35, N-(3-(5-isopropyl-1,3,4-thiadiazol-2-yl)phenyl)-5-(piperazin-1-ylmethyl)pyrrolo[2,1-f][1,2,4]triazin-4-amine], for which the IC50 (listed as IC50 ranges) was 0.1 to 1 µM. Take `CC(=O)NC1CCN(Cc2ccn3ncnc(Nc4cccc(-c5nnc(C(C)C)s5)c4)c23)CC1` [Example 53, N-(1-((4-((3-(5-isopropyl-1,3,4-thiadiazol-2-yl)phenyl)amino)pyrrolo[2,1-f][1,2,4]triazin-5-yl)methyl)piperidin-4-yl)acetamide]: the IC50 (listed as IC50 ranges) lay within 0.01 to 0.1 µM.

`Cn1ccc(-c2cccc(Nc3ncnn4ccc(CN5CCC(N)CC5)c34)c2)n1` [Example 12, 5-((4-aminopiperidin-1-yl)methyl)-N-(3-(1-methyl-1H-pyrazol-3-yl)phenyl)pyrrolo[2,1-f][1,2,4]triazin-4-amine] returned a concentration for half-maximal inhibition (IC50) of 0.446 µM. Turning to `CC(C)c1nnc(-c2cccc(Nc3ncnn4ccc(CN5CCN(C)CC5)c34)c2)s1` [Example 55, N-(3-(5-isopropyl-1,3,4-thiadiazol-2-yl)phenyl)-5-((4-methylpiperazin-1-yl)methyl)pyrrolo[2,1-f][1,2,4]triazin-4-amine], the IC50 (listed as IC50 ranges) was in the range of 0.1 to 1 µM. Turning to `CC(C)(CO)c1nc(-c2cccc(Nc3ncnn4ccc(CN5CCC(N)CC5)c34)c2)no1` [Example 10, 2-(3-(3-((5-((4-aminopiperidin-1-yl)methyl)pyrrolo[2,1-f][1,2,4]triazin-4-yl)amino)phenyl)-1,2,4-oxadiazol-5-yl)-2-methylpropan-1-ol], the IC50 (listed as IC50 ranges) was 0.01 to 0.1 µM.

Consider `CC(C)C[C@@H](N)C(=O)Nc1cccc(Nc2ncnn3ccc(CN4CCC(N)CC4)c23)c1` [Example 67, (R)-2-amino-N-(3-((5-((4-aminopiperidin-1-yl)methyl)pyrrolo[2,1-f][1,2,4]triazin-4-yl)amino)phenyl)-4-methylpentanamide], for which, for the setting “listed as IC50 ranges”, the concentration for half-maximal inhibition (IC50) fell in the range of 0.1 to 1 µM. Compound `CC(C)n1nnc(-c2cccc(Nc3ncnn4ccc(CO)c34)c2)n1` [Example 98, (4-((3-(2-isopropyl-2H-tetrazol-5-yl)phenyl)amino)pyrrolo[2,1-f][1,2,4]triazin-5-yl)methanol] returned a concentration for half-maximal inhibition (IC50) of 0.092 µM. With `CNC1CCN(Cc2ccn3ncnc(Nc4cccc(-c5nnc(C(C)C)o5)c4)c23)CC1` [Example 40, N-(3-(5-isopropyl-1,3,4-oxadiazol-2-yl)phenyl)-5-((4-(methylamino)piperidin-1-yl)methyl)pyrrolo[2,1-f][1,2,4]triazin-4-amine], the IC50 (listed as IC50 ranges) is 0.01 to 0.1 µM.

In the case of `CC(C)CNC(=O)c1cccc(Nc2ncnn3ccc(CN4CCC(N)CC4)c23)c1` [Example 33, 3-((5-((4-aminopiperidin-1-yl)methyl)pyrrolo[2,1-f][1,2,4]triazin-4-yl)amino)-N-isobutylbenzamide], the half-inhibitory concentration (IC50) (listed as IC50 ranges) is 0.01 to 0.1 µM.

For the compound `CC(C)n1nnc(-c2cc(Nc3ncnn4ccc(CN5CCC(N)CC5)c34)cc3[nH]cnc23)n1` [Example 75, 5-((4-aminopiperidin-1-yl)methyl)-N-(4-(2-isopropyl-2H-tetrazol-5-yl)-1H-benzo[d]imidazol-6-yl)pyrrolo[2,1-f][1,2,4]triazin-4-amine], the IC50 (listed as IC50 ranges) is 0.1 to 1 µM. The same measure, in the same setting: the result for `CC(C)n1nnc(-c2cccc(Nc3ncnn4ccc(CNC5CC6CCC(C5)N6C)c34)c2)n1` (stereo not drawn) [Example 58, N-(3-(2-isopropyl-2H-tetrazol-5-yl)phenyl)-5-((8-methyl-8-azabicyclo[3.2.1]octan-3-ylamino)methyl)pyrrolo[1,2-f][1,2,4]triazin-4-amine] reads 1 to 5 µM; that for `NC1CCN(Cc2ccn3ncnc(Nc4cccc(-c5noc(CCl)n5)c4)c23)CC1` [Example 11, 5-((4-aminopiperidin-1-yl)methyl)-N-(3-(5-(chloromethyl)-1,2,4-oxadiazol-3-yl)phenyl)pyrrolo[2,1-f][1,2,4]triazin-4-amine], 0.1 to 1 µM. The compound `CNCc1ccn2ncnc(Nc3cccc(-c4nnn(C(C)C)n4)c3)c12` [Example 63, N-(3-(2-isopropyl-2H-tetrazol-5-yl)phenyl)-5-((methylamino)methyl)pyrrolo[2,1-f][1,2,4]triazin-4-amine] gave an IC50 (listed as IC50 ranges) of 0.1 to 1 µM. The compound `CC(C)n1nnc(-c2cccc(Nc3ncnn4ccc(C(=O)N(C)C)c34)c2)n1` [Example 101, 4-((3-(2-isopropyl-2H-tetrazol-5-yl)phenyl)amino)-N,N-dimethylpyrrolo[2,1-f][1,2,4]triazine-5-carboxamide] displayed an IC50 of 0.687 µM.

Compound `CC(C)n1nnc(-c2cc(F)cc(Nc3ncnn4ccc(CN5CCC(N)CC5)c34)c2)n1` [Example 51, 5-((4-aminopiperidin-1-yl)methyl)-N-(3-fluoro-5-(2-isopropyl-2H-tetrazol-5-yl)phenyl)pyrrolo[2,1-f][1,2,4]triazin-4-amine] returned an IC50 (listed as IC50 ranges) of 0.001 to 0.01 µM.
